In US20090170930A1, “METHODS FOR DIRECTING DIFFERENTIATION OF CLONOGENIC NEURAL STEM CELLS WITH COUMARINS” (THE SECOND MILITARY MEDICAL UNIVERSITY, priority 2006, published 2009):

Legend:
Rat NSCs = assay: NG2 immunocytochemistry cell count: differentiation of NSCs to NG2 positive cells (OPCs); format: cell-based; settings: NSC neurospheres, mean±S.D.
Description: (§1) Rat NSCs isolation and culture were performed as described by Weiss et al (Weiss et al., 1996). Briefly, the cortex of 1- to 2-day-old newborn SD rats were removed and placed into sterile chilled Hank's Balanced Salt Solution. After the meninges were carefully removed, tissues were cut into tiny pieces and gently triturated with a Pasteur pipette at least 10-15 times. The suspended tissue was centrifuged at 500 g for 5 min and the pellets were re-suspended in a proliferation medium (DMEM/F12 nutrient (1:1) with additional 2% B27 (Invitrogen Corporation, Carlsbad, Calif.) supplement and 20 ng/mL bFGF (PeproTech, Rocky Hill, N.J.)). The cells were plated at a density of 50 cells/mL in non-coated […] flasks. Every 4 days, bFGF was added along with a partial medium change. After 7 days in vitro, cells formed floating neurospheres. To subculture NSCs, the neurospheres were centrifuged at 600 g for 5 min when the diameters of neurospheres reached a size of approximately 100-200 μm; they were then re-suspended in fresh medium and mechanically dissociated into single cells. Single cells subsequently were seeded into proliferation medium at a density of 10 cells/mL per flask. This procedure produced a second generation of neurospheres, and additional generations of NSCs were produced using this same procedure.
Neurospheres were plated into 12-well plates on poly-D-lysine coated 35 mm dishes at a density of 10-20 spheres per dish in 1.5 mL medium. 1 hour after plating, compounds were added at a final concentration 100 μM unless otherwise indicated. After 5 days, cells were examined with Phase contrast image or immunocytochemistry.
Identification of the different kinds of cells was performed using indirect immunocytochemistry. Cells on dishes were fixed with 4% paraformaldehyde at room temperature for 20 min and washed three times in succession with 0.01 M PBS for 5 min each time. Cells were then treated with 0.3% Triton 100 containing 10% normal goat serum at room temperature for 30 min (Xu et al., 2006). Cells were then incubated with primary antibodies at 4° C. for 12-16 h and washed three times with 0.01 M phosphate buffered saline (PBS) for 5 min each time. FITC-conjugated secondary antibodies were added to the cells, and the cells were incubated at 37° C. for 40 min. After three 5 min PBS washes, Hochest 33258 nuclear stain was added at room temperature for 10 min, followed by two more 5 min PBS rinses. The dishes were examined by a fluorescence microscopy. The primary antibodies included anti-GFAP (1:200; rabbit; Promega), anti-nestin (1:500; Mouse; Chemicon); anti-NG2(1:200; Mouse; Chemicon), anti-MBP (1:50; Mouse; Chemicon), anti-04 (1:100; Mouse; Chemicon), anti-RIP (1:100; Mouse; Chemicon), anti-olig2 (1:100; rabbit; Abcam). The secondary antibodies were FITC-labeled antibodies to rabbit IgG (1:200) and TRITIC-labeled antibodies to mouse IgG (1:200). Immunostained preparations were examined with an IX70 Olympus microscope equipped for phase contrast and epi-fluorescence. Light from a 75 W xenon arc lamp (AH2-RX, Olympus) passed through filter sets (Chroma) to generate excited light for Hochest 33258, FITC and TRITIC stains. All image acquisitions were finished with computer-controlled CCD (Micromax 5 MHz system, Roper Princeton Instruments) and MetaMorph Imaging System version 3.6 (Universal Imaging Corporation). To determine the number of cells expressing a particular antigen, 100 fields per sample were examined and totaled. Observers without knowledge of the treatment condition counted the numbers of positive cells for NG2, compared to total numbers of progeny of NSCs determined by counting Hochest 33258 staining cell nuclei. Results are given as mean±S.D. of data for six samples from three independent experiments. Statistical analyses were carried out using Student's t-test with SPSS software (Version 10.1). […]

NSCs = assay: Primary compound screen of NSCs, phase contrast morphology; format: cell-based, rat; settings: 100 μM, 5 days, phase contrast microscope
Description: as §1, with “procedure. […]” for “procedure.”

Molecule | The ratio of NG2 positive cells of the total cells (%) (Rat NSCs; Dose 1 μM) | The ratio of NG2 positive cells of the total cells (%) (Rat NSCs; Dose 10 μM) | The ratio of NG2 positive cells of the total cells (%) (Rat NSCs; Dose 100 μM) | The ratio of NG2 positive cells of the total cells (%) (Rat NSCs; Dose 1 mM) | The ratio of NG2 positive cells of the total cells (%) (Rat NSCs; Dose 1 μM, listed as daphnoretin) | The ratio of NG2 positive cells of the total cells (%) (Rat NSCs; Dose 10 μM, listed as daphnoretin) | The ratio of NG2 positive cells of the total cells (%) (Rat NSCs; Dose 100 μM, listed as daphnoretin) | The ratio of NG2 positive cells of the total cells (%) (Rat NSCs; Dose 1 mM, listed as daphnoretin) | generation of round bipolar or multipolar morphology cells (probably OPCs) (NSCs)
O=c1ccc2ccc(O)cc2o1 [7-hydroxycoumarin] | 68 ± 6.5 | 76 ± 6.6 | 89 ± 9.3 | 92 ± 8.7 |  |  |  |  | 
COc1ccc2ccc(=O)oc2c1 [7-methoxy coumarin] | 16.7 ± 2.2 | 1 | 1 | 1 |  |  |  |  | 
O=c1ccc2cc(O)c(O)cc2o1 [Aesculetin] | 53 ± 2.4 | 63 ± 2.9 | 68 ± 2.7 | 75 ± 1.6 |  |  |  |  | 
COc1cc2oc(=O)cc(-c3ccccc3)c2cc1O [Dalbergin] | 1 | 1 | 1 | 1 |  |  |  |  | 
COc1cc2cc(Oc3ccc4ccc(=O)oc4c3)c(=O)oc2cc1O[C@@H]1O[C@H](CO)[C@@H](O)[C@H](O)[C@H]1O [Daphnoretin-7-O-β-D-glucopyranoside] | 1 | 1 | 1 | 1 |  |  |  |  | 
COc1cc2cc(Oc3ccc4ccc(=O)oc4c3)c(=O)oc2cc1O [Daphnoretin] | 65 ± 5.3 | 87 ± 7.5 | 92 ± 8.6 | 95 ± 6.9 | 65±5.3 | 87±7.5 | 92±8.6 | 95±6.9 | markedly enhance the generation of round bipolar or multipolar morphology cells
O=c1ccc2ccc(Oc3cc4ccc(O)cc4oc3=O)cc2o1 [Edgeworin] | 60 ± 2.6 | 63 ± 2.9 | 68 ± 3.5 | 81 ± 3.1 |  |  |  |  | 
C[C@@H]1O[C@@H](Oc2ccc3ccc(=O)oc3c2-c2c(O)ccc3ccc(=O)oc23)[C@H](O)[C@H](O)[C@H]1O [Edgeworoside C] | 1 | 1 | 1 | 1 |  |  |  |  | 
O=c1ccc2cc(O[C@@H]3O[C@H](CO)[C@@H](O)[C@H](O)[C@H]3O)c(O)cc2o1 [Esculetin-6-β-D-glucopyranoside] | 67 ± 4.6 | 72 ± 3.5 | 70 ± 3.9 | 85 ± 5.2 |  |  |  |  | 
COc1cc(O)c2c(=O)cc(-c3ccc(O)cc3)oc2c1 [Genkwanin] | 23 ± 2.3 | 1 | 1 | 1 |  |  |  |  | 
COc1cc2cc(Oc3ccc4ccc(=O)oc4c3)c(=O)oc2cc1OC [Isodaphnoretin] | 15.6 ± 1.8 | 1 | 1 | 1 |  |  |  |  | 
COc1cc2ccc(=O)oc2cc1O [Scopoletin] | 62 ± 5.6 | 63 ± 6.3 | 70 ± 6.9 | 68 ± 6.7 |  |  |  |  | 
Isopsoralen | 21 ± 1.6 | 1 | 1 | 1 |  |  |  |  | 
